In ChEMBL document CHEMBL4130359, “Indazole-based ligands for estrogen-related receptor α as potential anti-diabetic agents” (Eur J Med Chem, 2017):
Calls of active or inactive are those of the source. The calls are words filed in the database; no cut-off is given here.

Columns and labels:
[1] = Cmax in Zucker rat sub-chronic fa/fa prediabetic model at 50 mg/kg, po qd measured on day 1 post dose; assay type: ADME, organism-based; parameters: dose 50 mg/kg, route oral; conditions: in vivo
[2] = Cmax in Zucker rat sub-chronic fa/fa prediabetic model at 1 mg/kg, po qd measured on day 1 post dose; assay type: ADME, organism-based; parameters: dose 1 mg/kg, route oral; conditions: in vivo
Rattus norvegicus [3] = assay: Toxicity in […] chronic ob/ob model assessed as serum triglyceride level at 10 mg/kg, po qd for 31 days measured on day 32 (reference value: 329 +/- 36 mg/dl); assay type: organism-based; conditions: in vivo, 744 h
Rattus norvegicus [4] = assay: Antidiabetic activity in Zucker rat sub-chronic fa/fa prediabetic model assessed as increase in serum adiponectin level administered orally once daily for 32 days by ELISA; assay type: functional, organism-based
Rattus norvegicus [5] = assay: Toxicity in […] model assessed as serum cholesterol level at 10 mg/kg, po qd for 31 days measured on day 32 (reference value: 195 +/- 5.5 mg/dl); assay type: organism-based; conditions: in vivo, 744 h
[6] = Cmax in […] chronic ob/ob model at 10 mg/kg, po qd for 28 days measured on day 28 post last dose; assay type: ADME, organism-based; parameters: dose 10 mg/kg, route oral; conditions: in vivo
Rattus norvegicus [7] = assay: Toxicity in Zucker rat sub-chronic fa/fa prediabetic model assessed as brown adipose tissue weight at 3 mg/kg, po qd for 31 days measured on day 32 (reference value: 2.1 +/- 0.3 g); assay type: organism-based; conditions: in vivo, 744 h
Rattus norvegicus [8] = assay: Effect on TNF gene expression in epididymal white adipose tissue of Zucker rat sub-chronic fa/fa prediabetic model at 10 mg/kg, po qd for 15 days by microarray analysis relative to control; assay type: functional
[9] = Cmax in Zucker rat sub-chronic fa/fa prediabetic model at 3 mg/kg, po qd for 26 days measured on day 26 post last dose; assay type: ADME, organism-based; parameters: dose 3 mg/kg, route oral; conditions: in vivo
Rattus norvegicus [10] = assay: Toxicity in Zucker rat sub-chronic fa/fa prediabetic model assessed as serum AST level at 50 mg/kg, po qd for 31 days measured on day 32 (reference value: 187 +/- 37 U/L); assay type: organism-based; conditions: in vivo, 744 h
Rattus norvegicus [11] = assay: Toxicity in Zucker rat sub-chronic fa/fa prediabetic model assessed as effect on liver enzymes at 10 mg/kg, po qd during 10 days study; assay type: organism-based; conditions: in vivo, 240 h
Rattus norvegicus [12] = assay: Toxicity in Zucker rat sub-chronic fa/fa prediabetic model assessed as serum creatinine level at 1 mg/kg, po qd for 31 days measured on day 32 (reference value: 0.71 +/- 0.07 mg/dl); assay type: organism-based; conditions: in vivo, 744 h
Rattus norvegicus [13] = assay: Effect on ECHS1 gene expression in epididymal white adipose tissue of Zucker rat sub-chronic fa/fa prediabetic model at 10 mg/kg, po qd for 15 days by microarray analysis relative to control; assay type: functional
[14] = target: Peroxisome proliferator-activated receptor gamma (Homo sapiens, UniProt P37231); assay: Inhibition of fluormone PPARgamma Green binding to recombinant N-terminal GST-tagged human PPARgamma LBD by fluorescence polarization assay
Rattus norvegicus [15] = assay: Effect on DLST gene expression in epididymal white adipose tissue of Zucker rat sub-chronic fa/fa prediabetic model at 10 mg/kg, po qd for 15 days by microarray analysis relative to control; assay type: functional
Rattus norvegicus [16] = assay: Toxicity in […] chronic ob/ob model assessed as epididymal white adipose tissue weight at 10 mg/kg, po qd for 31 days measured on day 32 (reference value: 3.92 +/- 0.14 g); assay type: organism-based; conditions: in vivo, 744 h
Rattus norvegicus [17] = assay: Effect on CTGF gene expression in epididymal white adipose tissue of Zucker rat sub-chronic fa/fa prediabetic model at 10 mg/kg, po qd for 15 days by microarray analysis relative to control; assay type: functional
[18] = Cmax in Zucker rat sub-chronic fa/fa prediabetic model at 3 mg/kg, po qd measured on day 1 post dose; assay type: ADME, organism-based; parameters: dose 3 mg/kg, route oral; conditions: in vivo
Rattus norvegicus [19] = assay: Toxicity in Zucker rat sub-chronic fa/fa prediabetic model assessed as serum BUN level at 3 mg/kg, po qd for 31 days measured on day 32 (reference value: 28.3 +/- […]); assay type: organism-based; conditions: in vivo, 744 h
Rattus norvegicus [20] = assay type: functional, Zucker
[21] = Terminal half life in CD-1 mouse at 20 mg/kg administered via oral gavage by LC-MS analysis; assay type: ADME, organism-based; conditions: in vivo, read-out: beta t1/2 (converted)
[22] = target: Oxysterols receptor LXR-beta (Homo sapiens, UniProt P55055); assay: Antagonist activity at recombinant GST-tagged human LXRbeta LBD assessed as inhibition of TO901317-induced fluorescein-labeled coactivator peptide recruitment preincubated with enzyme followed by coactivator addition by LanthaScreen TR-FRET assay
Rattus norvegicus [23] = assay: Toxicity in Zucker rat sub-chronic fa/fa prediabetic model assessed as body weight at 50 mg/kg, po qd for 29 days measured on day 29 post last dose (reference value: 533 +/- 10 g); assay type: organism-based; conditions: in vivo, 696 h
Rattus norvegicus [24] = assay: Toxicity in Zucker rat sub-chronic fa/fa prediabetic model assessed as epididymal white adipose tissue weight at 3 mg/kg, po qd for 31 days measured on day 32 (reference value: 13.9 +/- 0.6 g); assay type: organism-based; conditions: in vivo, 744 h
[25] = Volume of distribution at steady state in CD-1 mouse at 5 mg/kg, iv by LC-MS analysis; assay type: ADME, organism-based; conditions: in vivo, read-out: Vdss
[26] = Tmax in ob/ob mouse at 18 mg/kg administered via oral gavage by LC-MS analysis; assay type: ADME, organism-based; conditions: in vivo
Rattus norvegicus [27] = assay: Antidiabetic activity in Zucker rat sub-chronic fa/fa prediabetic model assessed as increase in serum adiponectin level administered orally once daily for 4 days by ELISA; assay type: functional, organism-based
Rattus norvegicus [28] = assay: Toxicity in Zucker rat sub-chronic fa/fa prediabetic model assessed as food intake at 1 mg/kg, po qd for 29 days measured on day 1 to 29 during compound dosing (reference value: 969 +/- 18 g); assay type: organism-based; conditions: in vivo, 696 h
[29] = target: Sodium channel protein type 2 subunit alpha (Homo sapiens) (UniProt Q99250); assay: Activity at human Nav1.2 expressed in CHOK1 cells assessed as effect on channel current up to 10 uM by patch clamp method; assay type: cell-based
Rattus norvegicus [30] = species: Rattus norvegicus; assay: Toxicity in Zucker rat sub-chronic fa/fa prediabetic model assessed as increase in epididymal white adipose tissue weight during 15 day single dose study; assay type: organism-based; conditions: in vivo, 360 h
Rattus norvegicus [31] = assay: Effect on TGFB1 gene expression in epididymal white adipose tissue of Zucker rat sub-chronic fa/fa prediabetic model at 10 mg/kg, po qd for 15 days by microarray analysis relative to control; assay type: functional
Rattus norvegicus [32] = assay: Effect on RRAS2 gene expression in epididymal white adipose tissue of Zucker rat sub-chronic fa/fa prediabetic model at 10 mg/kg, po qd for 15 days by microarray analysis relative to control; assay type: functional
Rattus norvegicus [33] = assay: Effect on HSP90B1 gene expression in epididymal white adipose tissue of Zucker rat sub-chronic fa/fa prediabetic model at 10 mg/kg, po qd for 15 days by microarray analysis relative to control; assay type: functional
Rattus norvegicus [34] = assay: Toxicity in […] model assessed as serum AST level at 10 mg/kg, po qd for 31 days measured on day 32 (reference value: 180 +/- 26 U/L); assay type: organism-based; conditions: in vivo, 744 h
[35] = target: Estrogen-related receptor gamma (Homo sapiens, UniProt P62508); assay: Antagonist activity at ERRgamma (unknown origin) assessed as inhibition of co-activator peptide recruitment by TR-FRET assay
Estrogen-related receptor gamma, sequence (P62508 whole entry): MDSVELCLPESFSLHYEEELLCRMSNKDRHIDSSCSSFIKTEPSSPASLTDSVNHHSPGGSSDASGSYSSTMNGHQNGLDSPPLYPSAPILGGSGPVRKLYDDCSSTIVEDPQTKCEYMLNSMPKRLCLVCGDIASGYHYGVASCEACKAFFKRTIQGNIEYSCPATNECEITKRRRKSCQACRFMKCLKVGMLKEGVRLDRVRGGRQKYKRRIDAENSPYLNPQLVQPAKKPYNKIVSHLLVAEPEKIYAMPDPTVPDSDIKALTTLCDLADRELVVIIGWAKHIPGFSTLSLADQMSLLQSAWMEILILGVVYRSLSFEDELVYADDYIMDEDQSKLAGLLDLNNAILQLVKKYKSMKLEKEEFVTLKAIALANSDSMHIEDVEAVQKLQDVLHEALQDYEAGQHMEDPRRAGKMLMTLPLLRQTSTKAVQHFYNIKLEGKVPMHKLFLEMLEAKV

Oxysterols receptor LXR-beta, sequence (P55055 whole entry, the tested form may be a part): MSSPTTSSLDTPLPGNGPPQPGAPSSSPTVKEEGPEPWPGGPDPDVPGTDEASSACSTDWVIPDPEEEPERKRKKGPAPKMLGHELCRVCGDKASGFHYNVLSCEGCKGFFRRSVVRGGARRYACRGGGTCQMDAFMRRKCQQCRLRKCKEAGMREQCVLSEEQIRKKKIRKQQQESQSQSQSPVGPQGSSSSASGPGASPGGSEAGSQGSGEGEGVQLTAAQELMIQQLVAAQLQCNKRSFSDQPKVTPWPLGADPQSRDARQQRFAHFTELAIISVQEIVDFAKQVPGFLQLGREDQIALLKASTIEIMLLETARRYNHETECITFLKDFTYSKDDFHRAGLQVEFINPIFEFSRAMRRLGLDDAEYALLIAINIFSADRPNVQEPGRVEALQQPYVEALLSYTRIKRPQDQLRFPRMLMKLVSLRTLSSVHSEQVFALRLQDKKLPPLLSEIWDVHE
Sodium channel protein type 2 subunit alpha (Homo sapiens), sequence (Q99250 whole entry, looked up): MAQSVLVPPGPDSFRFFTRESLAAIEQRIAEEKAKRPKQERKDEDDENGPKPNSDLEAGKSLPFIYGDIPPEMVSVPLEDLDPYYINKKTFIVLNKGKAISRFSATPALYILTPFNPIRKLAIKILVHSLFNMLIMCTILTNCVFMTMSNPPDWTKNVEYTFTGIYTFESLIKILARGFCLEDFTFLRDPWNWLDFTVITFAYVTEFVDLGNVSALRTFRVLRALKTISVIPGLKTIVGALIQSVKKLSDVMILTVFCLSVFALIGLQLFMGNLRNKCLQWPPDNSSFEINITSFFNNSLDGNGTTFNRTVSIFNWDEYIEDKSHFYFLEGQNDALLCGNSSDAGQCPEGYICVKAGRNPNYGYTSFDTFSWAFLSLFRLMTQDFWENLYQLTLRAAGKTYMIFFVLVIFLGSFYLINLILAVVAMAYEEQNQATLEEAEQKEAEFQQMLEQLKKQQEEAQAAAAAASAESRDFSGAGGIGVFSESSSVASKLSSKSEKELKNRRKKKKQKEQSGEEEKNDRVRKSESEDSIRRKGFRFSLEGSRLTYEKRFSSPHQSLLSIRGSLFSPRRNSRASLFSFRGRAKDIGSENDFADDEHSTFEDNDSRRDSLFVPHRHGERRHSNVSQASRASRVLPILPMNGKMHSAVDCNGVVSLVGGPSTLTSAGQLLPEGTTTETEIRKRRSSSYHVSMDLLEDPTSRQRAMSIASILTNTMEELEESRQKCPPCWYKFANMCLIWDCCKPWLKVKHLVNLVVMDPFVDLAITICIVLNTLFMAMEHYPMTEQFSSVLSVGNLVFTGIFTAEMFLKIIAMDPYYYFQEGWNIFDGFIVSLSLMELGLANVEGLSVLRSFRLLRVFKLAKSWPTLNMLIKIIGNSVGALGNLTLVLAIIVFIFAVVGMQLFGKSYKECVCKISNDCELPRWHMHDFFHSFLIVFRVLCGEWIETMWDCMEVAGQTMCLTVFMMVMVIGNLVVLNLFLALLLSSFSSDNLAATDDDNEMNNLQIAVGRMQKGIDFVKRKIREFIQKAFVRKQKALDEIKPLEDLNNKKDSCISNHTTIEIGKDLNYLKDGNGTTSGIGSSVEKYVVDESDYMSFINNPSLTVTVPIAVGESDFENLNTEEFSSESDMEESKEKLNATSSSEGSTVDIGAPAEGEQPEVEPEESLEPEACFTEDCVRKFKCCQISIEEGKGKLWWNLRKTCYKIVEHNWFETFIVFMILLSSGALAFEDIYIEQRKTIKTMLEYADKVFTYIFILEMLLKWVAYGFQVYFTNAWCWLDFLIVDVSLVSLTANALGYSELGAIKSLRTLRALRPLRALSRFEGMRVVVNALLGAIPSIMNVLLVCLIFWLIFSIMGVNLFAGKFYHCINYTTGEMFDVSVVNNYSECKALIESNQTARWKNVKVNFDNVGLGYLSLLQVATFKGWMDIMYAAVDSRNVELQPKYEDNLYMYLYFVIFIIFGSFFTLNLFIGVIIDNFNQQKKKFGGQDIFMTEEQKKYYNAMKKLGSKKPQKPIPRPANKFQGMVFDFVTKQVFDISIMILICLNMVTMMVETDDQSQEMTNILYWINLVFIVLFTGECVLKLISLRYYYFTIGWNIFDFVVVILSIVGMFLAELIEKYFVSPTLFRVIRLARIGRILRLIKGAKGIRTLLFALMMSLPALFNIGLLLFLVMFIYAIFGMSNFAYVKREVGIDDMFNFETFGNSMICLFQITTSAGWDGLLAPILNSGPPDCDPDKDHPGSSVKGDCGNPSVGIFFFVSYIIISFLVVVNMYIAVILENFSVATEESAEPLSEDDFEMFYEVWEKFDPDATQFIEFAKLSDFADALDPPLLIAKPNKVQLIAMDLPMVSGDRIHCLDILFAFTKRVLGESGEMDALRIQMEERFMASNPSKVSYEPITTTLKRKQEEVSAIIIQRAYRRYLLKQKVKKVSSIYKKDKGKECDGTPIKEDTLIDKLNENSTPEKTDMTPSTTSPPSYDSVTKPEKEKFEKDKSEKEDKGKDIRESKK
Peroxisome proliferator-activated receptor gamma, sequence (P37231 whole entry, the tested form may be a part): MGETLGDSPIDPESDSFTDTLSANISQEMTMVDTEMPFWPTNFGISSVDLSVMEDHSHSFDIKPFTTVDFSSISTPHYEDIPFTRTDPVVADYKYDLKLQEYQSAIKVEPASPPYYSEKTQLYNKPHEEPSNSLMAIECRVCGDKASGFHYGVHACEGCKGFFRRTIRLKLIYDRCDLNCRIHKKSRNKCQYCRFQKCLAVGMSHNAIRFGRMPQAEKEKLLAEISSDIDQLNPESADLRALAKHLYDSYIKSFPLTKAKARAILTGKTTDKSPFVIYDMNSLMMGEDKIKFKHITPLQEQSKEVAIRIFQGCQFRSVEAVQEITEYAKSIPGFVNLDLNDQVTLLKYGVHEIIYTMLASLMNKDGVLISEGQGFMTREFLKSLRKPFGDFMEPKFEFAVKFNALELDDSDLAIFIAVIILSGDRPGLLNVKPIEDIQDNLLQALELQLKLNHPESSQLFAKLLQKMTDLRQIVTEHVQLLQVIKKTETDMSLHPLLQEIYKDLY

In the case of `CN1CC[C@@H](N2C(=O)S/C(=C\c3ccc4c(cnn4Cc4ccc(Cl)cc4C(F)(F)F)c3)C2=O)[C@H](F)C1`, the Cmax [1] is reported as 8380 ng/mL, the Cmax [2] is reported as 262 ng/mL and the Activity (Rattus norvegicus [3]) is reported as 138 mg/dL. The Activity (Rattus norvegicus [4]) was “Dose-dependent effect”, the Activity (Rattus norvegicus [5]) was 164 mg/dL and the Cmax [6] was 454 ng/mL. For the same compound, the Activity (Rattus norvegicus [7]) was 4.4 g, the “fold change (FC)” value (Rattus norvegicus [8]) was -1.24 and the Cmax [9] was 1220 ng/mL. The Activity (Rattus norvegicus [10]) was 87 U/L, the Activity (Rattus norvegicus [11]) was “Non-Toxic” and the Activity (Rattus norvegicus [12]) was 0.66 mg/dL. The “fold change (FC)” value (Rattus norvegicus [13]) was 1.35, the IC50 [14] was over 10 µM and the “fold change (FC)” value (Rattus norvegicus [15]) was 1.352. The Activity (Rattus norvegicus [16]) was 3.29 g, the “fold change (FC)” value (Rattus norvegicus [17]) was 1.458 and the Cmax [18] was 725 ng/mL. For the same compound, the Activity (Rattus norvegicus [19]) was 26.3 mg/dL, the Activity (Rattus norvegicus [20]) was 331.3 mg/dL and the half-life [21] was 10.6 h. For the same compound, the IC50 [22] was over 10 µM, the Activity (Rattus norvegicus [23]) was 557 g and the Activity (Rattus norvegicus [24]) was 17.8 g. The Vd [25] was 6.89 L/kg, the Tmax [26] was 2 h and the Activity (Rattus norvegicus [27]) was “Dose-dependent effect”. For the same compound, the Activity (Rattus norvegicus [28]) was 975 g, the Activity [29] was “inactive” and the Activity (Rattus norvegicus [30]) was “Non-Toxic”. The “fold change (FC)” value (Rattus norvegicus [31]) was -1.47, the “fold change (FC)” value (Rattus norvegicus [32]) was 1.235 and the “fold change (FC)” value (Rattus norvegicus [33]) was -1.258. It also gave an Activity (Rattus norvegicus [34]) of 171 U/L and an IC50 [35] of over 10 µM.
